Laboratory results from patent US12544463B2, “Deuterium substituted positron emission tomography (PET) imaging agents and their pharmacological application” (Five Eleven Pharma Inc., priority 2017, dated 2026).

Assays:
[1] = target: T1, serotonin transporters (SERT) (Rattus norvegicus, UniProt P31652); test: In vitro binding assay, LLC-SERT membrane homogenates, [^125I]IDAM; conditions: 0.2 nM [^125I]IDAM, LLC-SERT membranes; read-out: Ki (SERT binding affinity) (converted)
T1 construct: expressed in transfected cells; host or cells: LLC-PK1 (LLC-SERT)
T1 sequence (P31652 whole entry): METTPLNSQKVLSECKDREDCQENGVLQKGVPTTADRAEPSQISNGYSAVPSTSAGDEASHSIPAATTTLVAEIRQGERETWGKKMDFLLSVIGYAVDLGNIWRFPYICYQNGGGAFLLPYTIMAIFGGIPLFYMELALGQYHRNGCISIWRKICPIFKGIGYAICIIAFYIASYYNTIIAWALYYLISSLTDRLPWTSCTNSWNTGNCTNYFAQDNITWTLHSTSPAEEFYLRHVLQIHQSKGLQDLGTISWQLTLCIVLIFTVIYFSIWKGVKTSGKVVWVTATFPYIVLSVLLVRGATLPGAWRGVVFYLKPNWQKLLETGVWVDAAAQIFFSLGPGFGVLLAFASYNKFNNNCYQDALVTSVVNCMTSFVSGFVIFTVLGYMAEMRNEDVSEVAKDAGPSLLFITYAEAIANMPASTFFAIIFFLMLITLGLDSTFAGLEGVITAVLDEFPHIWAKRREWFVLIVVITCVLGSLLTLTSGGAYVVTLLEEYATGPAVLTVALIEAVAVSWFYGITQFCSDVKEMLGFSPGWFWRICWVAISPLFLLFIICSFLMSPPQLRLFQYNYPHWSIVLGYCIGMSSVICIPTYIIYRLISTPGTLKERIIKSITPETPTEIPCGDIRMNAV
Protocol: The membrane homogenates of serotonin transporters (LLC-SERT, which were expressed in a common parental cell line LLC-PK1) were prepared and used for the binding assays. Competitive binding assays were performed in a final volume of 0.25 mL. […] Nonspecific binding was defined with 10 μM citalopram. Incubation was carried out for 60 min at room temperature and the bound ligand was collected on glass fiber filters presoaked with 1% polyethylenimine (SIGMA, St. Louis, MO) and counted in a gamma counter (Wizard^2, Perkin Elmer).

[2] = Biodistribution study in mice; assay type: in vivo; conditions: for Biodistribution Blood / Biodistribution Bone / Biodistribution Brain / Biodistribution Heart / Biodistribution Kidney / Biodistribution Liver / Biodistribution Lung / Biodistribution Muscle / Biodistribution Pancreas / Biodistribution Skin / Biodistribution Spleen: normal male mice
Protocol: Three mice per group were used for biodistribution study. While under isoflurane anesthesia, 0.1 mL of a saline solution containing radioactive tracer was injected into tail vein. The mice were sacrificed at the time indicated by cardiac excision while under isoflurane anesthesia. Organs of interest were removed and weighed, and the radioactivity was counted. The percent dose per organ was calculated by comparing the tissue counts to counts of 1% of the initial dose (100 times diluted aliquots of the injected material) measured at the same time.

## [2H]C([2H])([2H])N(Cc1cc(O)ccc1Sc1ccccc1N)C([2H])([2H])[2H] [III-2-4]
[1]
  Ki: 2.02 ± 0.54 nM

## [2H]C([2H])([2H])NCc1cc(OCCCF)ccc1Sc1ccccc1N [III-6-8]
[1]
  Ki: 3.05 ± 0.81 nM

## [2H]C([2H])(F)C([2H])([2H])C([2H])([2H])Oc1ccc(Sc2ccc(I)cc2N)c(CN(C)C)c1 [III-4-28]
[1]
  Ki: 0.008 nM

## [2H]C([2H])(F)C([2H])([2H])C([2H])([2H])Oc1ccc(Sc2ccc(Br)cc2N)c(CN(C)C)c1 [III-4-26]
[1]
  Ki: 0.021 nM

## [2H]C([2H])(F)C([2H])([2H])C([2H])([2H])Oc1ccc(Sc2ccc(Cl)cc2N)c(CN(C)C)c1 [III-4-25]
[1]
  Ki: 0.009 nM

## CNCc1cc(OCCCF)ccc1Sc1ccccc1N [III-6-5]
[1]
  Ki: 5.26 ± 0.66 nM

## CN(C)Cc1cc(O)ccc1Sc1ccc(Cl)cc1N [III-4-17]
[1]
  Ki: 0.03 nM

## [2H]C([2H])([2H])Nc1ccc(/C=C/c2ccc(OCCOCCOCC[18F])nc2)cc1 [^18F-AV-45-D3 (IIa1)]
[2]; mice, after i.v. injection
  brain uptake: excellent brain uptake comparable to that observed to ^18F-AV-45
[2]; 2 min
  Biodistribution Blood: 2.16 ± 0.05 % Dose/g
  Biodistribution Bone: 1.74 ± 0.18 % Dose/g
  Biodistribution Brain: 6.26 ± 0.23 % Dose/g
  Biodistribution Heart: 5.08 ± 0.39 % Dose/g
  Biodistribution Kidney: 9.51 ± 0.80 % Dose/g
  Biodistribution Liver: 12.0 ± 0.70 % Dose/g
  Biodistribution Lung: 4.88 ± 0.16 % Dose/g
  Biodistribution Muscle: 3.21 ± 0.14 % Dose/g
  Biodistribution Pancreas: 4.94 ± 0.77 % Dose/g
  Biodistribution Skin: 1.24 ± 0.27 % Dose/g
  Biodistribution Spleen: 2.50 ± 0.12 % Dose/g
[2]; 30 min
  Biodistribution Blood: 2.93 ± 0.27 % Dose/g
  Biodistribution Bone: 2.24 ± 0.44 % Dose/g
  Biodistribution Brain: 1.71 ± 0.37 % Dose/g
  Biodistribution Heart: 2.40 ± 0.39 % Dose/g
  Biodistribution Kidney: 6.41 ± 1.86 % Dose/g
  Biodistribution Liver: 12.0 ± 0.71 % Dose/g
  Biodistribution Lung: 2.90 ± 0.47 % Dose/g
  Biodistribution Muscle: 1.79 ± 0.06 % Dose/g
  Biodistribution Pancreas: 2.05 ± 0.29 % Dose/g
  Biodistribution Skin: 2.07 ± 0.14 % Dose/g
  Biodistribution Spleen: 1.52 ± 0.21 % Dose/g
[2]; 60 min
  Biodistribution Blood: 2.08 ± 0.07 % Dose/g
  Biodistribution Bone: 2.76 ± 0.37 % Dose/g
  Biodistribution Brain: 1.53 ± 0.20 % Dose/g
  Biodistribution Heart: 1.72 ± 0.19 % Dose/g
  Biodistribution Kidney: 3.74 ± 0.47 % Dose/g
  Biodistribution Liver: 8.15 ± 0.75 % Dose/g
  Biodistribution Lung: 1.97 ± 0.25 % Dose/g
  Biodistribution Muscle: 1.20 ± 0.04 % Dose/g
  Biodistribution Pancreas: 1.43 ± 0.20 % Dose/g
  Biodistribution Skin: 1.34 ± 0.07 % Dose/g
  Biodistribution Spleen: 1.22 ± 0.12 % Dose/g
[2]; 120 min
  Biodistribution Blood: 1.36 ± 0.12 % Dose/g
  Biodistribution Bone: 4.41 ± 0.77 % Dose/g
  Biodistribution Brain: 1.26 ± 0.04 % Dose/g
  Biodistribution Heart: 1.18 ± 0.03 % Dose/g
  Biodistribution Kidney: 2.09 ± 0.02 % Dose/g
  Biodistribution Liver: 5.47 ± 0.29 % Dose/g
  Biodistribution Lung: 1.31 ± 0.03 % Dose/g
  Biodistribution Muscle: 0.75 ± 0.07 % Dose/g
  Biodistribution Pancreas: 0.87 ± 0.15 % Dose/g
  Biodistribution Skin: 0.91 ± 0.13 % Dose/g
  Biodistribution Spleen: 0.83 ± 0.07 % Dose/g

## [2H]C([2H])(F)C([2H])([2H])C([2H])([2H])Oc1ccc(Sc2ccccc2N)c(CN)c1 [III-5-8]
[1]
  Ki: 44.9 ± 2.5 nM

## CN(C)Cc1cc(O)ccc1Sc1ccc(Br)cc1N [III-4-18]
[1]
  Ki: 0.02 nM
